In US20220251218A1, “PHARMACEUTICAL COMBINATION AND METHOD FOR OVERCOMING IMMUNE SUPPRESSION OR STIMULATING IMMUNE RESPONSE AGAINST CANCER” (GNT BIOTECH & MEDICALS CORPORATION, priority 2021, published 2022):
Several values for one entry are separate records, joined by “and”; a condition that tells them apart may be missing. Equal entries are not always repeated. Where two headings read alike, the source gives them in different places.

Assays:
[1] = test system: CT26 tumor; conditions: for ORR (%): 3 days after end of treatment; for Relapse (recurrence): tumor growth at least 5 fold in mice with CR or PR; for CR / PD / PR: number of mice
Experimental: Anti-Colorectal Cancer Activity in Animal Models. Animal study was approved and overseen by The Taipei Medical University Institutional Animal Care and Use Committee (TMU IACUC, NO: LAC-2020-0103, LAC-2019-0644). Six- to eight-week-old male Balb/c mice (National Laboratory Animal Center, Taiwan) were used for all animal experiments. CT26 cell line was purchased from ATCC. CT26 tumor cell lines were grown in RPMI-1640 supplemented with 10% (vol/vol) FBS at 37° C., 5% CO2. Tumors were established by s.c. injection of 1×10^6 CT26 cells with Matrigel (354248, Corning®) into the left flank of mice, and growth determined by measuring two perpendicular diameters. Tumors were allowed to grow for 8-12 days (tumor size about 110-250 mm^3) before randomization and treatment. Animals were euthanized when tumors reached more than 3000 mm^3 in volume. An anti-IgG antibody (BE0089, Lot #716719J3, Bio X Cell), anti-PD-1 antibody (BE0146, Lot #717918D1, Lot #735019J3, Lot #780120J3, Lot #73501901, Bio X Cell), anti-PD-L1 antibody (BE0101, Lot #720619F1, Bio X Cell) and anti-CTLA-4 antibody (BE0164, Lot #702418A2B, Bio X Cell) were administered i.p. at 2.5 mg/kg twice a week for three weeks. All antibodies were diluted to appropriate concentrations in 100 μL of sterile PBS (pH 7.4, Invitrogen Life Technologies). Axitinib (HY-10065, 30 mg/kg, po daily, MedChemExpress USA), Lenvatinib (HY-10981, 10 mg/kg, po daily, MedChemExpress USA), Olaparib (HY-10162, 50 mg/kg, po daily, MedChemExpress USA), Ibrutinib (HY-10997, 6 mg/kg, po daily, MedChemExpress USA), Cabozantinib (HY-13016, 30 mg/kg, po daily, MedChemExpress USA), Regorafenib (HY-1031, 30 mg/kg, po daily, MedChemExpress USA), RMC-4550 (HY-116009, 30 mg/kg, po daily, MedChemExpress USA), Sitravatinib (HY-16961, 20 mg/kg, po daily, MedChemExpress USA), Entinostat (HY-12163, 20 mg/kg, po q2d, MedChemExpress USA), Vorinostat (HY-10221, 150 mg/kg, po daily, MedChemExpress USA), Chidamide-k30 or Chidamide-HCl salt (50 mg/kg, po daily, produced from GNTbm, Taipei, Taiwan), Celecoxib (50 mg/kg, po daily, capsule/Celebrex®, Pfizer Pharmaceuticals LLC) were given for 16 days. Axitinib, Lenvatinib, Olaparib, Ibrutinib, Cabozantinib, Regorafenib, Entinostat, Vorinostat, RMC-4550, Sitravatinib and Celecoxib were dissolved in DMSO and diluted in PBS before administration. Chidamide-k30 and Chidamide-HCl salt were dissolved in water. Animals were euthanized when tumors reached more than 3000 mm^3 in volume. The anti-cancer activity was measured from the start of the treatment until the tumor volume reached 3,000 mm^3. Tumor volume was calculated as length×width^2×0.5. In this study, we defined Complete Response (CR, <0.5 time tumor growth in the tumor bearing mice at three days after the end of treatment); Partial Response (PR, tumor size ≥0.5 time tumor growth, but <1 times tumor growth in the tumor bearing mice at three days after the end of treatment); Stable Disease (SD, tumor size ≥1 time tumor growth, but <5 times tumor growth in the tumor bearing mice at three days after the end of treatment); Progressive Disease (PD, tumor size ≥5 times tumor growth in tumor bearing mice at three days after the end of treatment) for the evaluation of treatment efficacy. The recurrence was defined as when having tumor growth at least 5 fold in mice with CR or PR response after first tumor assessment.
Survival Rate in Animal Models. After tumor assessment the tumor volume of the mice was measured once every three or four days (twice/week). The tumor-bearing mice were regarded as dead when the tumor volume reached 3,000 mm^3. All treatment groups were recorded and analyzed.

[2] = test system: CT26 cells; experiment: Tumor rechallenge with CT26 cells in mice with PR/CR response (immunity); type: in vivo, Balb/c mice; conditions: for Immunity (rechallenge): mice resistant to CT26 re-challenge
Experimental: Tumor Rechallenges in Animal Models. All mice with PR/CR response after treatment were rechallenged with CT26 cells on the contralateral side (please see FIG. 6(F)). The rechallenge with CT26 was performed on day 34±2, which was 7 days […] after first tumor assessment (day 27±2), with injection of 5×10^6 CT26 cells per mouse. After rechallenge with CT26 cells, tumors were allowed to grow for another 7 days (day 41±2) to determine the baseline as 1 fold. After further 10 days (day 51±2), the tumor growth was evaluated for the rechallenge. If two of the following criteria are met, the response will be considered as rechallenge-induced recurrence/relapse: first, the tumor size over 2 folds when compared to that of baseline on day 41±2; second, the tumor volume on day 51±2 was over 300 mm^3. Relapse happens when immunity is not sufficiently activated. If the tumor growth is inhibited, it means the immunity is activated.
We were interested in researching more powerful regimens to regulate the TME for boosting the immune response rate. First, we were to evaluate the Lenvatinib and Lenvatinib combined with anti-PD-1 Ab in CT26-bearing mice model. […] CT26 tumor-bearing mice were euthanized when tumor volume reached 3000 mm^3 after tumor implantation. […] Next, we were interested to evaluate immunity stimulated by different treatments in a rechallenge experiment as outlined in FIG. 6(F). The mice with CR or PR went into a wash-out stage of 7 days (until day 34±2) without any further treatment. Then rechallenge was performed with the same kind of cancer cells (CT26; 5×10^6) inoculated on the opposite flank for about another 7 days (day 41±2) and then the tumor volume would be determined as baseline (1 fold). The rechallenge tumor was allowed to grow for 10 days, and then assessed to evaluate the tumor growth (day 51±2). The immunity was defined as negative, when it met two conditions: the tumor volume was over 300 mm^3, or the tumor size was over 2 fold when compared to baseline. […] If the immune memory was not induced or not fully activated, resulting in the growth of tumors inoculated during the rechallenge (tumor recurrence), then the immunity would be defined as negative. […] The rechallenge experiment was used to re-confirm whether the regimens have stimulated the immune system's ability to activate immune memory directly or indirectly.

[3] = FIG. 9, initial tumor volume 251 mm^3

Row | Structure (SMILES) | Survival Rate (%) ([1]; FIG. 6) | ORR (%) ([1]; FIG. 6, initial tumor volume 190 mm^3) | Relapse (recurrence) ([1]; FIG. 6) [%] | Survival Rate (%) ([1]; FIG. 9) | ORR (%) [1, 3] | Relapse (recurrence) ([1]; FIG. 9) [%] | body weight ([1]; mouse, in vivo) | CR ([1]; FIG. 6) | PD ([1]; FIG. 6) | PR ([1]; FIG. 6) | CR ([1]; FIG. 9) | PD ([1]; FIG. 9) | PR ([1]; FIG. 9) | tumor recurrence after the rechallenge ([2]; FIG. 6(G), mice that achieved CR/PR) [%] | Immunity (rechallenge) ([2]; FIG. 6, overall immune memory) [%] | Immunity (rechallenge) ([2]; FIG. 9) [%]
1 | COc1cc2nccc(Oc3ccc(NC(=O)NC4CC4)c(Cl)c3)c2cc1C(N)=O [Lenvatinib] | 10 | 30 | 67 | 0 | 12.5% and 13% | 100 | mildly reduced | 1 | 2 | 2 | 0 | 2 | 1 | 33 | 67 | 
2 | COc1cc2nccc(Oc3ccc(NC(=O)C4(C(=O)Nc5ccc(F)cc5)CC4)cc3)c2cc1OC [Cabozantinib] |  |  |  | 14 | 43% | 67 |  |  |  |  | 3 | 2 | 0 |  |  | 100
3 | CNC(=O)c1cc(Oc2ccc(NC(=O)Nc3ccc(Cl)c(C(F)(F)F)c3)c(F)c2)ccn1 [Regorafenib] |  |  |  | 13 | 25% | 50 |  |  |  |  | 2 | 2 | 0 |  |  | 50
4 | CNC(=O)c1ccccc1Sc1ccc2c(/C=C/c3ccccn3)n[nH]c2c1 [Axitinib] |  |  |  | 38 | 37.5% and 38% | 0 |  |  |  |  | 3 | 4 | 0 |  |  | 
